Reference: patent US5846562A, “Oral composition of fumagillol derivative” (Takeda Chemical Industries, Ltd., priority 1996, dated 1998)
Read-outs that look alike come from different tables or passages of the source.

Assays:
[1] = test system: Colon 26 cancer cells; experiment: Colon 26 tumor growth inhibition in tumor-bearing mice, oral; assay type: in vivo, female BALB/c mice; settings: solution in Miglyol 812
Procedure: (§1) Tumor-bearing mice were provided by transplanting 1×10^5 Colon 26 cancer cells/animal in the flank of female 10-week-old BALB/c mice (Charles River Japan). […] On day 21, the tumor mass at the transplantation site was excised and weighed, and the tumor weight ratio relative to the untreated control group (T/C) was calculated. In addition, the tumor colonies metastasized to the lungs were counted and the median value in each group was compared with that in the untreated control group (T/C).

[2] = test system: Colon 26 cancer cells; experiment: Lung metastasis (tumor colonies) in Colon 26 tumor-bearing mice, oral; assay type: in vivo, female BALB/c mice; settings: for T/C (median number of tumor colonies metastasized to the lungs vs untreated control): oral once daily day 7 to day 20, sample solution in Miglyol 812, day 21
Procedure: as §1

[3] = Plasma concentration of metabolite after oral compound A with or without famotidine pretreatment; assay type: in vivo, SD rats; settings: famotidine-treated group, intragastric pH elevated, vs no famotidine
Procedure: Famotidine (Sigma) was administered subcutaneously to SD rats fasted overnight (dose; 10 mg/kg). […] Blood was serially drawn from the caudal vein to determine the plasma concentration of metabolites.

[4] = rat, in vivo, po, 100 mg/kg
Excerpt: Blood was collected from the caudal vein periodicaly to determine the plasma concentration of metabolite.

CO[C@@H]1[C@H](OC(=O)NC(=O)CCl)CC[C@]2(CO2)[C@H]1[C@@]1(C)O[C@@H]1CC=C(C)C [Compound A, 6-O-(N-chloroacetylcarbamoyl)fumagillol]
effect on tumor growth inhibition [1]: potent and dose-dependent effect | T/C (median number of tumor colonies metastasized to the lungs vs untreated control) ([2]; 25 mg/kg): 71% | T/C (median number of tumor colonies metastasized to the lungs vs untreated control) ([2]; 50 mg/kg): 52% | effect on tumor metastasis inhibition ([2]; oral, solution in Miglyol 812): potent and dose-dependent effect | absorption [3]: marked increase in absorption | Plasma concentration of metabolite ([4]; 5 min): 15.7 ± 1.6 ng/mL | Plasma concentration of metabolite ([4]; 10 min): 17.3 ± 4.9 ng/mL | Plasma concentration of metabolite ([4]; 30 min): 5.8 ± 3.6 ng/mL | Plasma concentration of metabolite ([4]; 60 min): 0 ng/mL
